Columns and labels:
[1] = tested on: pERK (Thr202/Tyr204) in NCI-H358_Cas9_SOS2 (SOS2 knocked); test: ERK phosphorylation assay 2 (AlphaLISA SureFire Ultra p-ERK1/2); conditions: read-out: IC50 H358 pERK, ERK phosphorylation assay 2 (values marked with *)
Description: ERK Phosphorylation Assay
Low IC50 values in this assay setting are indicative of high potency of the compounds according to the invention.
GFP positive cells were collected and further expanded. These GFP-positive cell pools were single-cell diluted and SOS2 knock-out clones were identified via Western-blot and genomic DNA sequencing analysis.
Materials Used for the Assay:
(§1) AlphaLISA SureFire Ultra p-ERK1/2 (Thr202/Tyr204) Assay Kit (ALSU-PERK-A500)
Cells are seeded at 40,000 cells per well in /60 μL of RPMI with 10% FBS, non-essential amino acids, pyruvate and glutamax in Greiner TC 384 plates. The cells are incubated for 1 h at room temperature and then incubated overnight in an incubator at 37° C. and 5% CO2 in a humidified atmosphere. 60 nL compound solution (10 mM DMSO stock solution) is then added using a Labcyte Echo 550 device. After a 1 h incubation in the aforementioned incubator the medium is removed after centrifugation and the cells lysed by addition of 20 μL of 1.6-fold lysis buffer from the AlphaLISA SureFire Ultra pERK1/2 (Thr202/Tyr204) Assay Kit with added protease inhibitors, 100 nM trametinib+100 nM staurosporine. After 20 minutes of incubation at room temperature with shaking, 6 μL of each lysate sample is transferred to a 384-well Proxiplate and analyzed for pERK (Thr202/Tyr204) with the AlphaLISA SureFire Ultra pERK1/2 (Thr202/Tyr204) Assay Kit. 3 μL Acceptor Mix and 3 μL Donor Mix are added under subdued light and incubated for 2 h at room temperature in the dark, before the signal is measured on a PerkinElmer Envision HTS Multilabel Reader. The raw data were imported into and analyzed with the Boehringer Ingelheim proprietary software MegaLab (curve fitting based on the program PRISM, GraphPad Inc.).

[2] = target: T1, protein-protein interaction between SOS1 and KRAS G12C (Homo sapiens, UniProt P01116, C118S/C51S/C80L/G12C); test: KRAS::SOS1 AlphaScreen binding assay; conditions: Table 36
T1 construct: His6 (N)
Description: KRAS::SOS1 AlphaScreen Binding Assay
Assay buffer: • 1×PBS • 0.1% BSA • 0.05% Tween 20
AlphaLISA Glutathione Acceptor Beads and AlphaScreen Streptavidin Donor Beads are mixed in assay buffer at a concentration of 10 μg/mL (final assay concentration) each prior to use and kept at room temperature.
Compounds are diluted to a final start concentration of 100 μM and are tested in duplicate. […] For compound a start concentration of 100 μM, 150 nL of compound solution is transferred per well in 11 concentrations in duplicate with serial 1:5 dilutions.
The assay is run using a fully automated robotic system in a darkened room below 100 Lux. 10 μL of KRAS::SOS1 GDP mix is added into columns 1-24 to the 150 nL of compound solution (final dilution in the assay 1:100, final DMSO concentration 1%).
After 30 minutes incubation time 5 μL of bead mix is added into columns 1-23. Plates are kept at room temperature in a darkened incubator. After further 60 minutes incubation, the signal is measured using a PerkinElmer Envision HTS Multilabel Reader using the AlphaScreen specifications from PerkinElmer. Each plate contains the following controls: • diluted DMSO+KRAS::SOS1 GDP mix+bead mix • diluted DMSO+KRAS::SOS1 GDP mix
IC50 values are calculated and analyzed using a 4 parametric logistic model.

[3] = target: KRASG12-dependent Ba/F3 cells (Homo sapiens, UniProt P01116, G12C, cells depend on it); test: Ba/F3 cell model proliferation assay (AlamarBlue, 72 h); type: cell-based; conditions: Ba/F3 cells transduced with KRASG12C, read-out: IC50 Ba/F3 KRASG12C
KRASG12-dependent Ba/F3 cells, sequence (P01116 whole entry G12C): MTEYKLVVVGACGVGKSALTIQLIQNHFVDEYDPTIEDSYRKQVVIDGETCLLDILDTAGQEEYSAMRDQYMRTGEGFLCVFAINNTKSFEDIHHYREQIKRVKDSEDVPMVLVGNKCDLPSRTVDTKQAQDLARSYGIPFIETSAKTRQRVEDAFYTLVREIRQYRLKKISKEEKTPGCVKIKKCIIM
Description: Ba/F3 Cell Model Generation and Proliferation Assay
Plasmids containing KRASG12 mutants were obtained from GeneScript. To generate KRASG12-dependent Ba/F3 models, Ba/F3 cells were transduced with retroviruses containing vectors that harbor KRASG12 isoforms. Platinum-E cells (Cell Biolabs) were used for retrovirus packaging. Retrovirus was added to Ba/F3 cells. To ensure infection, 4 μg/mL polybrene was added and cells were spinfected. […] Cells with an infection efficiency of 10% to 20% were further cultivated and puromycin selection with 1 μg/mL was initiated. As a control, parental Ba/F3 cells were used to show selection status. Selection was considered successful when parental Ba/F3 cells cultures died. To evaluate the transforming potential of KRASG12 mutations, the growth medium was no longer supplemented with IL-3. Ba/F3 cells harboring the empty vector were used as a control. Approximately ten days before conducting the experiments, puromycin was left out.
All treatments were performed in technical duplicates. The assay is run using a fully automated robotic system. Treated cells were incubated for 72 h at 37° C. with 5% CO2.
AlamarBlue™ (ThermoFisher), a viability stain, was added and fluorescence measured in the PerkinElmer Envision HTS Multilabel Reader.

[4] = tested on: pERK (Thr202/Tyr204) in NCI-H358 (KRAS G12C mutation); test: ERK phosphorylation assay 1 (AlphaLISA SureFire Ultra p-ERK1/2); conditions: Homo sapiens, NCI-H358, read-out: IC50 H358 pERK
Description: ERK Phosphorylation Assay
Materials Used for the Assay:
as §1
The cells are incubated for 1 h at room temperature and then incubated overnight in an incubator at 37° C. and 5% CO2 in a humidified atmosphere. 60 nL compound solution (10 mM DMSO stock solution) is then added using a Labcyte Echo 550 device. […] After 20 minutes of incubation at room temperature with shaking, 6 μL of each lysate sample is transferred to a 384-well Proxiplate and analyzed for pERK (Thr202/Tyr204) with the AlphaLISA SureFire Ultra pERK1/2 (Thr202/Tyr204) Assay Kit. 3 μL Acceptor Mix and 3 μL Donor Mix are added under subdued light and incubated for 2 h at room temperature in the dark, before the signal is measured on a PerkinElmer Envision HTS Multilabel Reader. The raw data were imported into and analyzed with the Boehringer Ingelheim proprietary software MegaLab (curve fitting based on the program PRISM, GraphPad Inc.).

T1 sequence (P01116 1-169 isoform P01116-2 G12C/C51S/C80L/C118S): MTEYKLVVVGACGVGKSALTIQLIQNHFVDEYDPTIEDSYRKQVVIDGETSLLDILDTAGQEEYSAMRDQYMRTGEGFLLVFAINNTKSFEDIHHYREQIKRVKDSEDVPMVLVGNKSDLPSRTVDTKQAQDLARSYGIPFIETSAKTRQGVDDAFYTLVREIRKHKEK

SMILES | IC50 [1] | IC50 [2] | GI50 [3] | IC50 [4]
C=CC(=O)N1CC(Oc2cc(O[C@@H](C)[C@@H]3CCCN3C)nc(-c3noc([C@@]4(C)CCCc5sc(N)c(C#N)c54)n3)c2)C1 [Ia-3] | 0.5 nM | 1.2 nM | 0.3 nM | –
C=CC(=O)N1CCC(Oc2cc(O[C@@H](C)[C@@H]3CCCN3C)nc(-c3noc([C@@]4(C)CCCc5sc(N)c(C#N)c54)n3)c2)CC1 [Ia-4] | 1.1 nM | 1.7 nM | 1 nM | –
C=CC(=O)N1CCCC(Oc2cc(-c3noc([C@@]4(C)CCCc5sc(N)c(C#N)c54)n3)nc(N3CCCN(C)C[C@@H]3C)c2)C1 (stereo partly shown) [Ia-6] | 206 nM | 311 nM | – | –
C=CC(=O)N1CCN(c2cc(-c3noc(C4(C)CCCc5sc(N)c(C#N)c54)n3)nc(N3CCCN(CCCOC)C[C@@H]3C)c2)CC1 (stereo partly shown) [Ia-19] | – | 5 nM | 25.6 nM | 6.2 nM
C=CC(=O)N1CCN(c2cc(O[C@@H](C)[C@@H]3CCCN3C)nc(-c3noc([C@@]4(C)CCCc5sc(N)c(C#N)c54)n3)c2)CC1 [Ia-26] | 1.5 nM | 1.9 nM | 3.3 nM | –
C=CC(=O)N1CCN(c2cc(-c3noc(C4(C)CCCc5sc(N)c(C#N)c54)n3)nc(N3CCC4(CCN(C)CC4)CC3)c2)CC1 (stereo not shown) [Ia-34] | – | 259 nM | 4380 nM | 282 nM
C=CC(=O)N1CCN(c2cc(-c3noc(C4(C)CCCc5sc(N)c(C#N)c54)n3)nc(N3CCC(N4CC[C@@H](F)C4)CC3)c2)CC1 (stereo partly shown) [Ia-39] | – | 10 nM | 87.6 nM | 6.2 nM
C=CC(=O)N1CCN(c2cc(-c3noc([C@@]4(C)CCCc5sc(N)c(C#N)c54)n3)nc(O[C@@H](C)[C@@H]3CCCN3C)n2)C(C)C1C (stereo partly shown) [Ia-53] | 3.1 nM | 1.8 nM | 4.3 nM | –
C=CC(=O)N1[C@H](C)CN(c2cc(-c3noc([C@@]4(C)CCCc5sc(N)c(C#N)c54)n3)nc(O[C@@H](C)[C@@H]3CCCN3C)n2)C[C@H]1C [Ia-56] | 62.1 nM | 105 nM | 303 nM | –
C=CC(=O)N1CCN(c2cc(-c3noc([C@@]4(C)CCCc5sc(N)c(C#N)c54)n3)nc(O[C@@H](C)[C@@H]3CCCN3C)n2)CC12CC2 [Ia-57] | 0.9 nM | 1.5 nM | 5.9 nM | –
C=CC(=O)N1CCCN(c2cc(-c3noc([C@@]4(C)CCCc5sc(N)c(C#N)c54)n3)nc(O[C@@H](C)[C@@H]3CCCN3C)n2)[C@@H](C)C1 [Ia-58] | 300 nM | 319 nM | 3480 nM | –
C=CC(=O)N1C2CCC1CN(c1cc(-c3noc([C@@]4(C)CCCc5sc(N)c(C#N)c54)n3)nc(O[C@@H](C)[C@@H]3CCCN3C)n1)C2 [Ia-59] | 5.5 nM | 3 nM | 32.5 nM | –
C=CC(=O)N1CCN(c2cc(-c3noc([C@@]4(C)CCCc5sc(N)c(C#N)c54)n3)nc(O[C@@H](C)[C@@H]3CCCN3C)n2)C2CCCC21 (stereo partly shown) [Ia-60] | 2.8 nM | 1.7 nM | 5.9 nM | –
C=CC(=O)N1CCN(c2cc(-c3noc([C@@]4(C)CCCc5sc(N)c(C#N)c54)n3)nc(OC3(CN4CCCC4)CC3)n2)CC1 [Ia-67] | 177 nM | 15 nM | – | –
C=CC(=O)N1CCN(c2cc(-c3noc([C@@]4(C)CCCc5sc(N)c(C#N)c54)n3)nc(OC3CC4CCC(C3)N4C)n2)CC1 (stereo partly shown) [Ia-70] | 413 nM | 49 nM | – | –
C=CC(=O)N1CCN(c2cc(-c3noc([C@@]4(C)CCCc5sc(N)c(C#N)c54)n3)nc(N3CCC4(CC(O)C4)C3)n2)CC1 (stereo partly shown) [Ia-76] | 1000 nM | 391 nM | – | –
C=CC(=O)N1CCC(Oc2cc(-c3noc(C4(C)CCCc5sc(N)c(C#N)c54)n3)nc(N3CCN(C)C[C@@H]3C)c2)CC1 (stereo partly shown) [Ia-114] | – | 11 nM | 12.6 nM | 4.1 nM
C=CC(=O)N1CCN(c2cc(-c3noc([C@@]4(C)CCCc5sc(N)c(C#N)c54)n3)nc(N3CCN(C)CC3)c2)CC1 [Ia-116] | – | 31 nM | 208 nM | 6.4 nM
[2H]C([2H])([2H])N1CCN(c2cc(N3CCN(C(=O)C=C)CC3)cc(-c3noc(C4(C)CCCc5sc(N)c(C#N)c54)n3)n2)CC1 (stereo not shown) [Ia-128] | – | 64 nM | 681 nM | 13.3 nM
C=CC(=O)N1CCN(c2cc(-c3noc([C@@]4(C)CCCc5sc(N)c(C#N)c54)n3)nc(N3CCCN(CCOC)C[C@@H]3C)c2)CC1 [Ia-130] | – | 7 nM | 37.4 nM | 16.6 nM

Results, then the compound that gave them:

IC50 [1] | IC50 [2] | GI50 [3] | IC50 [4] | SMILES
21.3 nM | 8 nM | 97.6 nM | – | C=CC(=O)N1CCN(c2cc(-c3noc([C@@]4(C)CCCc5sc(N)c(C#N)c54)n3)nc(OC3CCC4CCN(C)C43)n2)CC1 (stereo partly shown) [Ia-48]
10.4 nM | 4 nM | 26 nM | – | C=CC(=O)N1CCN(c2cc(-c3noc([C@@]4(C)CCCc5sc(N)c(C#N)c54)n3)nc(OC3CCCC34CCCN4C)n2)CC1 (stereo partly shown) [Ia-49]
121 nM | 11 nM | 496 nM | – | C=CC(=O)N1CCN(c2cc(-c3noc([C@@]4(C)CCCc5sc(N)c(C#N)c54)n3)nc(OC3C4CC5CN(C)C3C5C4)n2)CC1 (stereo partly shown) [Ia-50]
98.5 nM | 19 nM | – | – | C=CC(=O)N1CCN(c2cc(-c3noc([C@@]4(C)CCCc5sc(N)c(C#N)c54)n3)nc(O[C@H]3C4CC5CN(C)[C@@H]3[C@H]5C4)n2)CC1 (stereo partly shown) [Ia-51]
9.8 nM | 2 nM | 24.2 nM | – | C=CC(=O)N1CC[C@H](C)N(c2cc(-c3noc([C@@]4(C)CCCc5sc(N)c(C#N)c54)n3)nc(O[C@@H](C)[C@@H]3CCCN3C)n2)CC1 [Ia-55]
124 nM | 9 nM | – | – | C=CC(=O)N1CCN(c2cc(-c3noc([C@@]4(C)CCCc5sc(N)c(C#N)c54)n3)nc(OC(C)CN3CCN(C)CC3)n2)CC1 (stereo partly shown) [Ia-66]
269 nM | 27 nM | – | – | C=CC(=O)N1CCN(c2cc(-c3noc([C@@]4(C)CCCc5sc(N)c(C#N)c54)n3)nc(O[C@H]3CCN(C)[C@H]3C)n2)CC1 [Ia-68]
298 nM | 23 nM | – | – | C=CC(=O)N1CCN(c2cc(-c3noc([C@@]4(C)CCCc5sc(N)c(C#N)c54)n3)nc(OC3CC4(CCN(C)C4)C3)n2)CC1 (stereo partly shown) [Ia-69]
138 nM | 222 nM | – | – | C=CC(=O)N1CCN(c2cc(-c3noc([C@@]4(C)CCCc5sc(N)c(C#N)c54)n3)nc(N3CCOC[C@@H]3C)n2)CC1 [Ia-73]
553 nM | 180 nM | – | – | C=CC(=O)N1CCN(c2cc(-c3noc([C@@]4(C)CCCc5sc(N)c(C#N)c54)n3)nc(N3CC[C@H](O)[C@@H]3C)n2)CC1 [Ia-75]
– | 60 nM | 1430 nM | 22.1 nM | C=CC(=O)N1CCN(c2cc(O[C@@H]3CCN(C)C3)nc(-c3noc([C@@]4(C)CCCc5sc(N)c(C#N)c54)n3)c2)CC1 [Ia-127]
– | 6 nM | 22.5 nM | 6.4 nM | C=CC(=O)N1CCN(c2cc(-c3noc([C@@]4(C)CCCc5sc(N)c(C#N)c54)n3)nc(N3CCCN(CCOC)C[C@@H]3C)n2)CC1 [Ia-129]
– | 5 nM | 22.4 nM | 6.2 nM | C=CC(=O)N1CCN(c2cc(-c3noc([C@@]4(C)CCCc5sc(N)c(C#N)c54)n3)nc(N3CCCN(C)C[C@@H]3C)n2)CC1 [Ia-131]
7.8 nM | 2 nM | – | – | C=CC(=O)N1CCN(c2cc(-c3noc([C@@]4(C)CCCc5sc(N)c(C#N)c54)n3)nc(O[C@@H](CC)[C@@H]3CCCN3C)n2)CC1 [Ia-138]

Source: patent US20230212164A1, “ANNULATED 2-AMINO-3-CYANO THIOPHENES AND DERIVATIVES FOR THE TREATMENT OF CANCER” (BOEHRINGER INGELHEIM INTERNATIONAL GMBH, priority 2020, published 2023)
